Data from patent US4869900A, “Pharamaceutical composition containing ubidecarenone” (Zambon S.p.A., priority 1985, dated 1989).

Columns and labels:
[1] = Stability of CoQ10 in the compositions (one year at 30° C.); format: physicochemical; details: after one year at 30° C., in the compositions or pharmaceutical preparations according to the invention
[2] = takes place through the lymphatic system; cited from earlier work
[3] = tested on: cardiac affections such as cardiac deficiency, ischemic disease; details: treatment of several cardiac affections such as cardiac deficiency; cited from earlier work

COC1=C(OC)C(=O)C(C/C=C(\C)CC/C=C(\C)CC/C=C(\C)CC/C=C(\C)CC/C=C(\C)CC/C=C(\C)CC/C=C(\C)CC/C=C(\C)CC/C=C(\C)CCC=C(C)C)=C(C)C1=O [CoQ10, Coenzyme Q10]
degradation of CoQ10 [1]: no degradation | absorption [2]: scarce | clinical effectiveness [3]: clinically effective
